The record followed here is US6066672A, “Amino compounds and angiotensin IV receptor agonists” (Taisho Pharmaceutical Co., Ltd., priority 1996, dated 2000).

Each structure is given as a SMILES string. Structures can show the parent of a compound that is named as a salt.

The target of this assay is T1, angiotensin IV receptor (Cavia porcellus, UniProt H0VNM7).
T1 construct: The Hartley guinea pig hippocampus was homogenized in a 50 mM Tris hydrochloride buffer solution; from tissue; host or cells: Hartley guinea pig hippocampus, crude membrane (48,000 x g precipitate)
T1 sequence (H0VNM7 1-1025): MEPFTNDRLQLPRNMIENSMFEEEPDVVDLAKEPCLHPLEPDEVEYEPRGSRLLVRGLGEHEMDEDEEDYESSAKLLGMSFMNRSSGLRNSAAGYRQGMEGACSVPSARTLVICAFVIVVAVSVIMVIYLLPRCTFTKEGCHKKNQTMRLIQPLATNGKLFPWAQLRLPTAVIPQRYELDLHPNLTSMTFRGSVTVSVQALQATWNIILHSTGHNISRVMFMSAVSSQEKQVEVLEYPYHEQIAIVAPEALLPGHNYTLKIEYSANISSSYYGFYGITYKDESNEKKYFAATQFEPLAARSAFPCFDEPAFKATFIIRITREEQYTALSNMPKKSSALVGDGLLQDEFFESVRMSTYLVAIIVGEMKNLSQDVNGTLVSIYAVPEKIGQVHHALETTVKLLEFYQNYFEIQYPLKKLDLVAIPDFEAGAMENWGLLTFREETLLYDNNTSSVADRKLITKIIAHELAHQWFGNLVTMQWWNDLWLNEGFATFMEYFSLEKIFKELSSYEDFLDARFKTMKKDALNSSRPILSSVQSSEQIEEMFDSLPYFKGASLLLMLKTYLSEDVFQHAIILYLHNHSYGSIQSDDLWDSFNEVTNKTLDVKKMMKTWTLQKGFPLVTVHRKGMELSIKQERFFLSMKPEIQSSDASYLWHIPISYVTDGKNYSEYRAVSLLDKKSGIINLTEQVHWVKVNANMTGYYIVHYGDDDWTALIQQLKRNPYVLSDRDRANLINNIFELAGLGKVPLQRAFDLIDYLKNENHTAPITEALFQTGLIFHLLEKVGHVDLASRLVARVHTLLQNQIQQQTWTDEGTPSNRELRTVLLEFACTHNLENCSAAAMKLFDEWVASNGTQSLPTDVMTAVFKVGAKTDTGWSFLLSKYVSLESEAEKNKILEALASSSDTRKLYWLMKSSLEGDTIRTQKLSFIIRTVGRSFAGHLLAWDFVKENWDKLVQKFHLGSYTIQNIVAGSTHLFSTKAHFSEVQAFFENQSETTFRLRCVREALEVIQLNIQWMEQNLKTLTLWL
The assay is described as follows: binding capability to angiotensin IV receptor, inhibition of 125I-angiotensin IV binding to guinea pig hippocampus membrane. Particulars: 0.2 nM 125I-angiotensin IV, Hartley guinea pig hippocampus crude membrane, 37° C., 90 minutes, pH 7.4. The method, then: The binding capability to angiotensin IV receptor was measured by using Hartley guinea pig hippocampus referring to the method described by Miller-Wing et al., J. Pharmacol. Exp. Ther., vol. 266, pp.1718 (1993). The Hartley guinea pig hippocampus was homogenized in a 50 mM Tris hydrochloride buffer solution (pH 7.4) containing 1 mM ethylenediamine-N,N,N',N'-tetraacetic acid (EDTA) and 100 μM phenylmethanesulfonyl fluoride (PMSF). After centrifugation at 900× g, the resulting supernatant was further centrifuged at 48,000× g. The precipitate was washed once with the same buffer solution and suspended in 50 mM Tris hydrochloride buffer solution (pH 7.4) containing 150 mM sodium chloride, 1 mM EDTA, 100 μM PMSF and 0.1% bovine serum albumin (BSA) to give a protein concentration of […] as a crude membrane specimen. […] The radioactivity on the filter paper was measured by using a gamma-counter. The non-specific bond was measured in the presence of 1 μM angiotensin IV, and the specific bond was calculated by subtracting the non-specific bond from the total bond.
Broadly, the IC50 is the concentration that gives 50% inhibition. As for `CCCC[C@H](N)CN[C@@H](Cc1ccc(O)cc1)C(=O)N[C@H](/C=C/c1ccc(C)cc1)[C@@H](C)CC` [Example 1, N'-[(S)-2-aminohexyl]-N-[(S)-(E)-3-(4-methylphenyl)-1-[(S)-1-methylpropyl]-2-propenyl]-L-tyrosinamide dihydrochloride], the IC50 was 0.59 nM.
Compound `CCCC[C@H](N)CN[C@@H](Cc1ccc(O)cc1)C(=O)N[C@H](/C=C/c1ccc(C(=O)OC)cc1)CC(C)C` [Example 11, N'-[(S)-2-aminohexyl]-N-[(S)-(E)-3-(4-methoxycarbonylphenyl)-1-(2-methylpropyl)-2-propenyl]-L-tyrosinamide dihydrochloride] returned an IC50 of 1.23 nM.
`CCCC[C@H](N)CN[C@H](CN[C@H](C(=O)OC)[C@@H](C)CC)Cc1ccc(O)cc1` [Example 31, N-[(S)-2-[[(S)-2-aminohexyl]amino]-3-(4-hydroxyphenyl)propyl]-L-isoleucinemethyl ester trihydrochloride] showed an IC50 of 32 nM.
For the compound `CCCC[C@H](N)CN[C@@H](Cc1ccc(O)cc1)C(=O)N[C@H](/C=C\c1ccc(Cl)cc1)CC(C)C` [Example 20, N'-[(S)-2-aminohexyl]-N-[(S)-(Z)-3-(4-chlorophenyl)-1-(2-methylpropyl)-2-propenyl]-L-tyrosinamide dihydrochloride], the IC50 was found to be 5.46 nM.
Compound `CCCC[C@H](N)CN[C@@H](Cc1ccc(O)cc1)C(=O)N[C@H](CCc1ccc(C(=O)OC)cc1)CC(C)C` [Example 12, N'-[(S)-2-aminohexyl]-N-[(R)-1-[2-(4-methoxycarbonylphenyl)ethyl]-3-methylbutyl]-L-tyrosinamide dihydrochloride] yielded an IC50 of 35.1 nM.
For `CCCC[C@H](N)C(=O)N[C@H](CN[C@H](CCc1ccccc1)CC(C)C)Cc1ccc(O)cc1` [Example 28, N-[1-[(S)-[(4-hydroxyphenyl)methyl]]-2-[[(R)-3-methyl-1-(2-phenylethyl)butyl]amino]ethyl]-L-norleucinamide dihydrochloride] the value was 299 nM.
Take `CCCC[C@H](N)CN[C@@H](Cc1ccc(O)cc1)C(=O)N[C@H](CCc1ccc(C)cc1)[C@@H](C)CC` [Example 2, N'-[(S)-2-aminohexyl]-N-[(1R,2S)-2-methyl-1-[2-(4-methylphenyl)ethyl]butyl]-L-tyrosinamide dihydrochloride]: the IC50 is 4.13 nM.
With `CCCC[C@H](N)CN[C@@H](Cc1ccc(O)cc1)C(=O)N[C@H](CCc1ccc2ccccc2n1)CC(C)C` [Example 24, N'-[(S)-2-aminohexyl]-N-[(R)-3-methyl-1-[2-(2-quinolyl)ethyl]butyl]-L-tyrosinamide dihydrochloride], the half-inhibitory concentration (IC50) came to 3.77 nM.
